Consider one molecule from US20220104486A1 (priority 2019, published 2022).

The assay deals with Fusarium graminearum. It is filed as in vivo. The note with it: seed treatment 0.3 mg ai/seed.
[1] abbreviates: corn, 36 days after planting, F. graminearum inoculum in furrow.

Like-named read-outs stand apart in the source and are kept apart here.

Consider `O=C(NCCc1ncc(C(F)(F)F)cc1Cl)c1ccccc1C(F)(F)F` [Fluopyram], for which, under “corn (Zea mays, variety N29t), plant stand 36 days after planting, F. graminearum inoculum in furrow, on base treatment”, the “Count plant number per 12 row meter” value was 54.58, B per 12 row meter. For the same molecule, the “efficacy against Fusarium graminearum, in words” value (corn field trial, high disease pressure) was “moderate control”. The “% efficacy based on loss of plants due to disease” value under setting [1] is given as 49.95%. Besides, the “% loss of plants due to disease based on a maximum of 60 plants per 12 row meters” value by setting is: under setting [1], 9.03%; (corn, 36 days after planting, F. graminearum inoculum in furrow, listed as commercial standard) 9%.
